Measurements published in patent US20070105721A1, “Vinylogous 4-Hpyrones and their use in promoting plant growth” (priority 2003, published 2007).

Legend:
Type in all cases: in vivo
Emmenanthe penduliflora [1] = experiment: Germination on moist filter paper in petri dishes; conditions: SW 1/10 dilution, compound 1a 10 ppb
Microlaena stipoides = experiment: Germination enhancement of species used in rangeland pasture systems; conditions: 100 ppb compound 1a; constant darkness at 18° C.; mean ± standard error
Procedure: (§1) Three replicates of 25 seeds were placed on Petri dishes lined with seed germination paper. The Petri dishes were moistened with de-ionised water (control) or 100 ppb compound 1a. All species were incubated in constant darkness at 18° C. Germination (radicle emergence) was recorded every 2-3 days until germination had ceased.

Passerina vulgaris [2] = experiment: Soil-based germination trial; conditions: SW 1/10 dilution; compound 1a 10 ppb; in soil; note: tested at 0.01 ppm
Procedure: (§2) For the soil-based germination trials, four replicates of 25 seeds were soaked in the test solution (water (control) or compound 1 analogues at 10 ppb) for 24 hours, dried in a laminar flow cabinet and sowed in a germination mix. The soil-sown seeds were incubated in the dark at 20±1° C. and were scored on a weekly basis.

Brunonia australis = experiment: Soil-based germination trial; conditions: SW 1/10 dilution; compound 1a 10 ppb; in soil; mean (SEM); note: tested at 0.01 ppm
Procedure: as §2

Rhodocoma arida [3] = experiment: Soil-based germination trial; conditions: SW 1/10 dilution; compound 1a 10 ppb; in soil; 1a statistically significant with p < 0.08; note: tested at 0.01 ppm
Procedure: as §2

Conostylis candicans = experiment: Soil-based germination trial; conditions: SW 1/10 dilution; compound 1a 10 ppb; in soil; note: tested at 0.01 ppm
Procedure: as §2

Ozothamnus cordifolium = experiment: Soil-based germination trial; conditions: SW 1/10 dilution; compound 1a 10 ppb; in soil; note: tested at 0.01 ppm
Procedure: as §2

Grevillea polybotrya = experiment: Soil-based germination trial; conditions: SW 1/10 dilution; compound 1a 10 ppb; in soil; note: tested at 0.01 ppm
Procedure: as §2

Syncarpha vestita [4] = experiment: Soil-based germination trial; conditions: SW 1/10 dilution; compound 1a 10 ppb; in soil; note: tested at 0.01 ppm
Procedure: as §2

Scaevola thesioides = experiment: Soil-based germination trial; conditions: SW 1/10 dilution; compound 1a 10 ppb; in soil; note: tested at 0.01 ppm
Procedure: as §2

Verticordia densiflora = experiment: Soil-based germination trial; conditions: SW 1/10 dilution; compound 1a 10 ppb; in soil; note: tested at 0.01 ppm
Procedure: as §2

[5] = tested on: Grand Rapids Lettuce seeds (Waltham strain); experiment: Grand Rapids bioassay
Procedure: Grand Rapids Lettuce seeds (Waltham strain) were obtained from R.B. Dessert Seed Co. and were frozen in sachets until use. For testing of aqueous samples, 2.5 mL of test solution was applied to three replicates of 40-50 seeds in Petri dishes (90 mm) lined with two layers of Whatman No. 1 filter paper (7 cm). Millipore filtered water (MP water) was used as a control for each experiment and dilutions of each sample were used to ensure the optimum concentration range for activity. Fractions were reconstituted to their original concentration (before fractionation) and dilutions were made using MP water. Petri dishes were sealed with a layer of plastic wrap, and stored in a light proof container. All manipulations involving the seed were carried out in a dark room and germinants, based on the appearance of a radicle, were scored after 48 hours incubation.

[6] = tested on: Podolepis canescens seeds; experiment: Compound 1a as a replacement for light or gibberellic acid; conditions: 1, 10 or 100 ppb compound 1a; similar to gibberellic acid
Procedure: Three replicates of 50 seeds of Podolepis canescens were placed on Petri dishes containing filter paper moistened with de-ionised water (control), 1, 10 or 100 ppb compound 1a or 1000 ppm gibberellic acid. The Petri dishes were incubated at 12/12 hr alternating temperatures of 7/18° C., 13/26° C. or 18/33° C. and incubated in white light or continuous darkness. All of the treatments were added to the Petri dishes in complete darkness prior to moving to the incubators. Germination was recorded following 7 days incubation.

Nicotiana attenuate = experiment: Germination on moist filter paper in petri dishes; conditions: SW 1/10 dilution, compound 1a tested at 100 ppb
Conostylis aculeata = experiment: Germination enhancement of species used in amenity horticulture; conditions: compound 1a at 100 ppb; constant darkness at 18° C.; mean ± standard error; note: tested at 0.1 ppm
Procedure: as §1, with “For each species, three” for “Three”, “five times a week.” for “every 2-3 days until germination had ceased.”

Passerina vulgaris [7] = experiment: as above; conditions: compound 1a at 100 ppb; constant darkness at 18° C.
Procedure: as §1, with “For each species, three” for “Three”, “five times a week.” for “every 2-3 days until germination had ceased.”

Rhodocoma arida [8] = experiment: as above; conditions: compound 1a at 100 ppb; constant darkness at 18° C.
Procedure: as §1, with “For each species, three” for “Three”, “five times a week.” for “every 2-3 days until germination had ceased.”

Emmenanthe penduliflora [9] = experiment: as above; conditions: compound 1a at 100 ppb; constant darkness at 18° C.
Procedure: as §1, with “For each species, three” for “Three”, “five times a week.” for “every 2-3 days until germination had ceased.”

Syncarpha vestita [10] = experiment: as above; conditions: compound 1a at 100 ppb; constant darkness at 18° C.
Procedure: as §1, with “For each species, three” for “Three”, “five times a week.” for “every 2-3 days until germination had ceased.”

Stylidium affine = experiment: as above; conditions: compound 1a at 100 ppb; constant darkness at 18° C. Note: tested at 0.1 ppm.
Procedure: as §1, with “For each species, three” for “Three”, “five times a week.” for “every 2-3 days until germination had ceased.”

Echinacea angustifolia = experiment: Stimulation of germination in nutriceutically important plants
Procedure: as §1, with “(control), 10” for “(control)”, “Seeds” for “All species”

Centrolepis aristate = experiment: Seed priming; conditions: 24 hr priming in 100 ppb compound 1a, re-drying and sowing; note: tested at 0.1 ppm
Procedure: (§3) For testing on Australian species, three replicates of 25 seeds were soaked in one of de-ionised DI water or 100 ppb compound 1a for 24 hr at 23° C. The seeds were re-dried at 23° C. for 24 hr and incubated on Petri dishes containing 0.7% (w/v) water agar in constant darkness at 18° C. Germination (radicle emergence) was recorded every 2-3 days until germination had ceased.

Borya sphaerocephala = experiment: Seed priming; conditions: 24 hr priming in 100 ppb compound 1a, re-drying and sowing; note: tested at 0.1 ppm
Procedure: as §3

Phyllanthus calycinus = experiment: Seed priming; conditions: 24 hr priming in 100 ppb compound 1a, re-drying and sowing; note: tested at 0.1 ppm
Procedure: as §3

Cherianthera preissiana = experiment: Seed priming; conditions: 24 hr priming in 100 ppb compound 1a, re-drying and sowing; note: tested at 0.1 ppm
Procedure: as §3

Opercularia vaginate = experiment: Seed priming; conditions: 24 hr priming in 100 ppb compound 1a, re-drying and sowing; note: tested at 0.1 ppm
Procedure: as §3

Q: `Cc1c2ccocc-2oc1=O` [Compound 1a, 3-Methyl-2H-furo[2,3-c]pyran-2-one] was tested. Which “Germination, Emmenanthe penduliflora” value (Emmenanthe penduliflora [1]) did it give?
A: 82.0 (±4.2) b %

Q: What about the “Germination, Microlaena stipoides” value (Microlaena stipoides) of the same molecule?
A: 78.3 ± 6.7 b

Q: What about the “Germination, Passerina vulgaris” value (Passerina vulgaris [2]) of the same molecule?
A: 10.0 (±4.1) b %

Q: What about the “Germination, Brunonia australis” value (Brunonia australis) of the same molecule?
A: 25.0 (±2.5) b %

Q: And the “Germination, Rhodocoma arida” value (Rhodocoma arida [3])?
A: *53.3 (±3.1) b %

Q: What about the “Germination, Conostylis candicans” value (Conostylis candicans) of the same molecule?
A: 36.0 (±6.7) b %

Q: What about the “Germination, Ozothamnus cordifolium” value (Ozothamnus cordifolium) of the same molecule?
A: 24.0 (±4.3) c %

Q: What about the “Germination, Grevillea polybotrya” value (Grevillea polybotrya) of the same molecule?
A: 6.0 (±2.0) c %

Q: And the “Germination, Syncarpha vestita” value (Syncarpha vestita [4])?
A: 77.5 (±6.3) b %

Q: And the “Germination, Scaevola thesioides” value (Scaevola thesioides)?
A: 17.0 (±5.5) b %

Q: And the “Germination, Verticordia densiflora” value (Verticordia densiflora)?
A: 11.1 (±1.2) b %

Q: And the “Grand Rapids germination” value ([5]; 1/1 000 000 dilution of compound 1a 1 mg/L)?
A: 60.9 (2.5) %

Q: What about the “Grand Rapids germination” value ([5]; 1/10 000 dilution (of neat SW; of compound 1a 1 mg/L)) of the same molecule?
A: 96.4 (0.6) %

Q: And the “Grand Rapids germination” value ([5]; 1/10 dilution (of neat SW; of compound 1a 1 mg/L))?
A: 98.4 (0.9) %

Q: What about the “Grand Rapids germination” value ([5]; 1/100 000 dilution of compound 1a 1 mg/L) of the same molecule?
A: 76.9 (1.5) %

Q: And the “Grand Rapids germination” value ([5]; 1/100 dilution (of neat SW; of compound 1a 1 mg/L))?
A: 98.4 (1.6) %

Q: And the “level at which compound 1a is active in promoting germination” value ([5]; 1/100 dilution of the estimated content of neat smoke water (1 mg per 10 000 L))?
A: 10^−10 mol/L

Q: What about the “Grand Rapids germination” value ([5]; 1/1000 dilution (of neat SW; of compound 1a 1 mg/L)) of the same molecule?
A: 97.0 (0.5) %

Q: What about the “Grand Rapids germination” value ([5]; Neat (neat SW; compound 1a 1 mg/L), mean (SEM)) of the same molecule?
A: 99.4 (0.6) %

Q: What about the inhibition of germination ([5]; at higher concentrations of 1a compared to the amount in smoke water) of the same molecule?
A: no inhibition of germination is observed

Q: And the “Germination, Grand Rapids” value ([5]; compounds isolated from smoke, mean (SEM))?
A: 99.3 (0.7) %

Q: What about the “germination in the dark of light-requiring Podolepis canescens” value [6] of the same molecule?
A: stimulates germination in the dark

Q: And the “Germination, Nicotiana attenuate” value (Nicotiana attenuate)?
A: **44.4 (±1.9) b %

Q: What about the “Germination, Conostylis aculeata” value (Conostylis aculeata) of the same molecule?
A: 48.2 ± 3.9 b

Q: What about the “Germination, Passerina vulgaris” value (Passerina vulgaris [7]) of the same molecule?
A: 10.0 ± 4.1 b

Q: What about the “Germination, Rhodocoma arida” value (Rhodocoma arida [8]) of the same molecule?
A: 53.3 ± 3.1 b

Q: What about the “Germination, Emmenanthe penduliflora” value (Emmenanthe penduliflora [9]) of the same molecule?
A: 82.0 ± 4.2 b

Q: What about the “Germination, Syncarpha vestita” value (Syncarpha vestita [10]) of the same molecule?
A: 77.5 ± 6.3 b

Q: What about the “Germination, Stylidium affine” value (Stylidium affine) of the same molecule?
A: 83.4 ± 3.7 b

Q: What about the “germination of Echinacea angustifolia” value (Echinacea angustifolia; 10 ppb compound 1a, mean ± standard error) of the same molecule?
A: 58.0 ± 5.5 b

Q: What about the “germination of Echinacea angustifolia” value (Echinacea angustifolia; 100 ppb compound 1a) of the same molecule?
A: 74.0 ± 4.0 b

Q: What about the “Germination (%), Centrolepis aristate” value (Centrolepis aristate) of the same molecule?
A: 88.0 ± 0.0 b %

Q: And the “Germination (%), Borya sphaerocephala” value (Borya sphaerocephala)?
A: 13.3 ± 4.8 b %

Q: What about the “Germination (%), Phyllanthus calycinus” value (Phyllanthus calycinus) of the same molecule?
A: 17.3 ± 1.3 b %

Q: What about the “Germination (%), Cherianthera preissiana” value (Cherianthera preissiana) of the same molecule?
A: 46.7 ± 4.8 b %

Q: And the “Germination (%), Opercularia vaginate” value (Opercularia vaginate)?
A: 22.7 ± 7.4 b %
